Results on five substances are retold here after US11173174B2, “DNMT inhibitor as solid tumor therapeutic drug” (OHARA PHARMACEUTICAL CO., LTD., priority 2017, dated 2021).

Series [1] can be described thus: Distribution coefficient log P (n-octanol/PBS). It counts as physicochemical. The source says: The separation systems of silica gel column, separation yields, data obtained from instrumental analysis and distribution coefficients of the compounds (A) to (E) which are 5′-position dibenzyl monophosphates of 5-azacytidines synthesized according to the above synthetic methods A or B are shown as below.

The test system of series [2] is DNA methyltransferase (DNMT). Nature of the series: Screening system for DNMT inhibitory activity (secretory luciferase reporter in HML58-3 cells). It counts as cell-based. The conditions noted are these: 10 μM of sample, cultured for 4 days, cell supernatant on day 5, HML58-3 cells. The source says: The screening system for assessment of DNMT inhibitory activity used for 5′-position dibenzyl monophosphate derivatives of 5-azacytidine and its 2′-deoxy form is the evaluation system which we have developed recently (Epigenetics, 2016, Dec 9:0: Establishment of a high-throughput detection system for DNA demethylating agents, E. Okochi-Takada, N. Hattori et al.). It is a simple screening system for assessment of DNMT inhibitory activity which uses genetically modified colorectal cancer cells, wherein […] luciferase can be expressed when 5-position methylation of cytosine ring in expressed gene promoter region is inhibited by inhibiting DNA methyltransferase (DNMT).
The screening system for assessment of DNMT inhibitory activity used for 5′-position dibenzyl monophosphate derivatives of 5-azacytidine and its 2′-deoxy form is the evaluation system which we have developed recently (Epigenetics, 2016, Dec 9:0: Establishment of a high-throughput detection system for DNA demethylating agents, E. Okochi-Takada, N.
(§1) Hattori et al.). In the evaluation system, a vector in which a secretory luciferase gene was ligated in the downstream of the endogenous promoter CpG island region was introduced into colon cancer cells. When inhibitions of DNA methyltransferase (DNMT) or other DNA methylation maintenance mechanism occur, C-methylation of the promoter CpG island decreases and secretory luciferase is expressed. Since the luciferase is secretory type, it is a screening system for DNMT inhibitory activity by which the assessment can be conducted easily by collecting cell supernatant and adding the substrate of luciferin. That is, on the day before the sample addition, colon cancer cells HML58-3 that had been genetically modified were seeded in a 96-well cell culture plate. 10 μM of each sample was added to each of them, and cultured for 4 days. On day 5, the cell supernatant was collected and luciferase activity was determined. In addition, cell account for each sample was determined according to WST-8 method.

For series [3], the system named is colon cancer cells HML58-3. Nature of the series: Cell count by WST-8 method (cytotoxicity). It counts as cell-based. The conditions noted are these: 10 μM of sample, cultured for 4 days, HML58-3 cells.
Description: as §1

Series [4] has as its system HCT116 cell (human colon cancer). Nature of the series: Antitumor activity in HCT116 cell-transplanted mouse model. It counts as in vivo, nude mice. The conditions noted are these: intraperitoneal, twice a week, 6 times in total; 5.5, 11 and 22 mg/kg; observed until 28th day; vs vehicle (DMSO). Here is the method:
(§2) In vivo assessment In order to investigate the antitumor activity of 5′-position dibenzyl monophosphate derivatives of 5-azacytidine and its 2′-deoxy form, a HCT116 cell-transplanted mouse model derived from human colon cancer was used. After nurturing nude mice (female, 5 weeks old), 5×10^6 cells were transplanted subcutaneously into right flank. From the grouping date, samples in various concentrations (DMSO solution) were administered intraperitoneally for 6 times in total, at a frequency of twice a week. The observation was performed until the 28th day after grouping, during which body weight and tumor diameter were measured at a frequency of once a week.

Series [5] is described as follows: Body weight / safety in HCT116 cell-transplanted mouse model. The conditions noted are these: intraperitoneal, twice a week, 6 times in total; 5.5, 11 and 22 mg/kg; observed until 28th day. It counts as in vivo, nude mice. Here is the method: as §2

For “O,O′-Di(4-fluoro)benzyl 5-aza-2′-deoxycytidylate [Compound (D)]”, the “Distribution coefficient log P” value in series [1] was 1.40. Further, the “Luciferase activity (DNMT inhibition)” value in series [2] was “very strong luciferase activity”. In series [3], the “Cytotoxicity (cell count, WST-8 method)” value was “low”. Further, in series [4], the “Antitumor activity (tumor volume)” value is “dose-dependent antitumor activity”. Further, the “Safety / change in body weight” value in series [5] is “highly safe”.

In the case of “O,O′-Di(4-methyl)benzyl 5-aza-2′-deoxycytidylate [Compound (C)]”, the “Luciferase activity (DNMT inhibition)” value in series [2] is “very strong luciferase activity”. Besides, in series [3], the “Cytotoxicity (cell count, WST-8 method)” value is listed as “low”.

Consider “O,O′-Di(4-chloro)benzyl 5-aza-2′-deoxycytidylate [Compound (E)]”, for which the “Distribution coefficient log P” value in series [1] is recorded as 2.44. Moreover, the “Luciferase activity (DNMT inhibition)” value in series [2] is on record as “very strong luciferase activity”. In addition, the “Cytotoxicity (cell count, WST-8 method)” value in series [3] is recorded as “low”.

As for “O,O′-Dibenzyl 5-aza-2′-deoxycytidylate [Compound (B)]”, the “Distribution coefficient log P” value in series [1] is 1.15. The “Luciferase activity (DNMT inhibition)” value in series [2] is on record as “very strong luciferase activity”. Moreover, the “Cytotoxicity (cell count, WST-8 method)” value in series [3] is recorded as “low”.

Take “O,O′-Dibenzyl 5-azacytidylate [Compound (A)]”: the “Distribution coefficient log P” value in series [1] was 0.83.
